Series [1] addresses T1, Substance-K receptor (Cavia porcellus) (UniProt Q64077).
T1 sequence (whole entry): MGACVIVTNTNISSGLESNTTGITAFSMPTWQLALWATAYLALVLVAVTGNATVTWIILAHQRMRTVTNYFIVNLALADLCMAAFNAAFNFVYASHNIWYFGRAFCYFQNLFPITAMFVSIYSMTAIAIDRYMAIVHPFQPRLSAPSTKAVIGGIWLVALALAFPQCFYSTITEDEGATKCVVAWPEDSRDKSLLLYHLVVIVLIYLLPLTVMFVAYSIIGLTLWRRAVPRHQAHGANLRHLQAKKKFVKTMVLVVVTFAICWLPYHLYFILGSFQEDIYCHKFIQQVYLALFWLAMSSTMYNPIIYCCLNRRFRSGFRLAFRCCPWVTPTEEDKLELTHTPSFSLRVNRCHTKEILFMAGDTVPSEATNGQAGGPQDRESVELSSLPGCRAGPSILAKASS
As to the kind of experiment: Antagonist activity at NK2 receptor in Dunkin-Hartley guinea pig colon smooth muscle assessed as inhibition of [beta-Ala8]NKA(4-10)-induced tissue contraction in presence of NK1 receptor antagonist SR-140333. Type of series: functional, tissue-based.

Series [2] is described as follows: Apparent permeability from apical to basolateral side of human Caco-2 cells at 100 uM. Background: Passage across Caco-2 layers is used to estimate intestinal permeability.
Series [3] has as its target T2, Substance-K receptor (Homo sapiens, UniProt P21452).
T2 sequence (P21452 whole entry): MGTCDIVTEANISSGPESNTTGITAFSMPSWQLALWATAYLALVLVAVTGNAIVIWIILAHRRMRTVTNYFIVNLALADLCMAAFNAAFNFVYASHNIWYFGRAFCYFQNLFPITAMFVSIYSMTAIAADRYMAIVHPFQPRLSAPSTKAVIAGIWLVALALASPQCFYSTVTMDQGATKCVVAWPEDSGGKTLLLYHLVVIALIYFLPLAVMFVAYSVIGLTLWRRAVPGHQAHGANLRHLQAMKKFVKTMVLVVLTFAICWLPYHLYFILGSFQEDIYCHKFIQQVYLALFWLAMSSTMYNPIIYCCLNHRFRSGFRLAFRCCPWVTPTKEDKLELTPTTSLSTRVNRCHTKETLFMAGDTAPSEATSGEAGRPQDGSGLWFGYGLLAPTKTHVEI
Nature of the series: Displacement of [3H]neurokinin A from human NK2 receptor. In general terms: Loss of bound radioactivity is the signal in a displacement assay; it reports binding, not function.

In series [4] the test system is Cavia porcellus. As to the kind of experiment: Inhibition of [beta-Ala8]NKA(4-10)-induced colonic contractions in Dunkin-Hartley guinea pig at 3 umol/kg, iv after 4 hrs relative to control. The format is functional.
Series [5] addresses T2, Substance-K receptor. As to the kind of experiment: Antagonist activity at NK2 receptor in human urinary bladder assessed as inhibition of [beta-Ala8]NKA(4-10)-induced tissue contractions. The format is functional. The following applies: read-out: pA2 (converted).
Series [6] has as its system Homo sapiens. Nature of the series: Inhibition of [beta-Ala8]NKA(4-10)-induced colonic contractions […] at 10 umol/kg, id relative to control. Type of series: functional, organism-based.

The source made the active and inactive calls. The calls are words filed in the database; no cut-off is given here.

As usually defined, the pKb is the Kb on a negative log10 scale, so that one unit is a factor of ten. Broadly, the Papp A→B is how fast a substance crosses the layer from the apical side. As usually defined, the Ki is a dissociation constant, usually derived from enzyme kinetics or from competition with a known ligand. Higher therefore signals weaker binding. Regarding `O=C(NC1(C(=O)N[C@@H](CCCN2CCN(CC3CCOCC3)CC2)Cc2ccccc2)CCCC1)c1ccc2ccccc2c1`, the pKb in series [1] came out at 8.2. Moreover, the Papp A→B at 100 µM in series [2] was found to be 14.6 ×10⁻⁶ cm/s. In addition, in series [3], affinity was put at a Ki of 0.316 nM.

For the molecule `COc1ccc2oc(C(=O)NC3(C(=O)N[C@@H](CCCN4CCN(CC5CCOCC5)CC4)Cc4ccccc4)CCCC3)cc2c1`, the pKb in series [1] is 7.4. Besides, the Papp A→B at 100 µM in series [2] worked out at 8.6 ×10⁻⁶ cm/s. Besides, the Imax in series [4] turned out to be 98%. In series [3], this molecule had a Ki of 0.631 nM.

For `O=C(NC1(C(=O)N[C@@H](CCCN2CCN(CC3CCOCC3)CC2)Cc2ccccc2)CCCC1)c1cc2cc(Cl)ccc2o1`, the pKb in series [1] came out at 7.6. Besides, the Papp A→B at 100 µM in series [2] came out at 13.7 ×10⁻⁶ cm/s. Also, the Imax in series [4] was determined as 100%. The molecule also gave a Ki in series [3] of 0.251 nM.

On to `O=C(NC1(C(=O)N[C@@H](CCCN2CCN(CC3CCOCC3)CC2)Cc2ccccc2)CCCC1)c1cc2ccccc2o1`, for which, in series [1], the pKb is 8.2. In series [2], the Papp A→B at 100 µM was 20.2 ×10⁻⁶ cm/s. Moreover, the Imax in series [4] was found to be 65%. Also, in series [3], the affinity corresponds to a Ki of 0.631 nM.

Turning to `O=C(NC1(C(=O)N[C@@H](CCCN2CCN(CC3CCOCC3)CC2)Cc2ccccc2)CCCC1)c1ccc(-c2ccccc2)cc1`, the pKb in series [1] was 8.7. Moreover, the Papp A→B at 100 µM in series [2] is 13.6 ×10⁻⁶ cm/s. The same molecule registered an Imax in series [4] of 86%. Further, the Ki in series [3] was 0.501 nM.

For `Cc1ccc2cc(C(=O)NC3(C(=O)N[C@@H](CCCN4CCN(CC5CCOCC5)CC4)Cc4ccccc4)CCCC3)sc2c1`, in series [1], the pKb stood at 8.6. Further, in series [5], the Kb is 0.2 nM. Further, in series [2], the Papp A→B at 100 µM came to 11.2 ×10⁻⁶ cm/s. In addition, in series [6], the result was Active. The Imax in series [4] is on record as 100%.

As to `Cc1ccc(-c2ccc(C(=O)NC3(C(=O)N[C@@H](CCCN4CCN(CC5CCOCC5)CC4)Cc4ccccc4)CCCC3)cc2)cc1`, in series [1], the pKb was 7.8. In series [2], the Papp A→B at 100 µM worked out at 7.1 ×10⁻⁶ cm/s. For the same molecule, in series [4], the Imax came out at 60%. In series [3], this molecule had an inhibition constant (Ki) of 0.631 nM.

`Cc1ccc2oc(C(=O)NC3(C(=O)N[C@@H](CCCN4CCN(CC5CCOCC5)CC4)Cc4ccccc4)CCCC3)cc2c1`: in series [1], the pKb was found to be 8.7. Moreover, the Imax in series [4] was determined as 100%. The Ki in series [3] is 0.398 nM.

As for `Cc1ccc2cc(C(=O)NC3(C(=O)N[C@@H](CCC(=O)N4CCC(N(C)C5CCOCC5)CC4)Cc4ccccc4)CCCC3)sc2c1`, in series [1], the pKb was found to be 7.8. The Imax in series [4] came to 90%. In series [3], the Ki was 0.316 nM.

Values taken from ChEMBL document CHEMBL1155466, “Structure-activity relationships of 6-methyl-benzo[b]thiophene-2-carboxylic acid (1-[(S)-1-benzyl-4-[4-(tetrahydropyran-4-ylmethyl)piperazin-1-yl]butylcarbamoyl]cyclopentyl)amide, potent antagonist of the neurokinin-2 receptor” (J Med Chem, 2010).
